From ChEMBL document CHEMBL1201862, “PubChem BioAssay data set” (2004)
Activity calls are given as the source filed them.

What was measured:
[1] = molecular target: NACHT, LRR and PYD domains-containing protein 3 (Homo sapiens, UniProt Q96P20); assay: NALP3 inhibitors in yeast, dose response, luminescent (AID 488799); format: functional
[2] = viability of uninfected HEp-2 cells – cell-based, HTS, cytotoxicity control for RSV inhibitor project, dose response (AID 2410); format: functional; details: human respiratory syncytial virus
[3] = molecular target: E3 ubiquitin-protein ligase Mdm2/Protein Mdm4 (Homo sapiens, UniProt O15151+Q00987); assay: disruption of Mdm2/MdmX protein binding – luminescence detection, dose response (AID 504593); format: functional
Integrin alpha-4 = Integrin alpha-4 (Homo sapiens, UniProt P13612); assay: allosteric modulators of alpha4 integrin VLA-4 – cell-based, LIBS antibody binding, flow cytometry, SAR follow-up (AID 488791); format: functional
Integrin alpha-4, sequence (P13612 whole entry): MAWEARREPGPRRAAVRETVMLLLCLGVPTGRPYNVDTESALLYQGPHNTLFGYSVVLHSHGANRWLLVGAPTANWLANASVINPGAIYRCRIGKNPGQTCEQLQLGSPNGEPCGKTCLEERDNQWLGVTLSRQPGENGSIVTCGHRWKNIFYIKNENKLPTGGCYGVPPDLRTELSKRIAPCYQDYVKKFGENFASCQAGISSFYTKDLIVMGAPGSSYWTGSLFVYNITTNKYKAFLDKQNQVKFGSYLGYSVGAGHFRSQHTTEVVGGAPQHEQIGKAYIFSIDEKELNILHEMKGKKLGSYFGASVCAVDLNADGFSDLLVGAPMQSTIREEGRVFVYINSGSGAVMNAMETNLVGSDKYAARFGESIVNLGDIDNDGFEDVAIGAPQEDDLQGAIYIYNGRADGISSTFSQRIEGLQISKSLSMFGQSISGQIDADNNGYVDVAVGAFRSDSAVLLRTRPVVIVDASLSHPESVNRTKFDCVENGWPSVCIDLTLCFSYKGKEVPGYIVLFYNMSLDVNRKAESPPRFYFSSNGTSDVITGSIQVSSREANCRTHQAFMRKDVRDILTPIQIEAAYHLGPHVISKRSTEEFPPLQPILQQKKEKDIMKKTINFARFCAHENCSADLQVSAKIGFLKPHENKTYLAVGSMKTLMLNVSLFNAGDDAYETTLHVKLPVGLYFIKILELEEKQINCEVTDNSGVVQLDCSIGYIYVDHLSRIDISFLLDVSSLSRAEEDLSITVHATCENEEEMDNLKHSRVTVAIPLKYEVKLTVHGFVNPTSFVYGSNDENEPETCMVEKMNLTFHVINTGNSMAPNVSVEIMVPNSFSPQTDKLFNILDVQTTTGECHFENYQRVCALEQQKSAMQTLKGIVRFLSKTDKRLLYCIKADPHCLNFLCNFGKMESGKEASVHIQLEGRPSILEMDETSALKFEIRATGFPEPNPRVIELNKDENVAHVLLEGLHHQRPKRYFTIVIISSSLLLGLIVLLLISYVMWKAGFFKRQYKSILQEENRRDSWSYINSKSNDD

[4] = NIH/3T3 cell viability loss – mouse embryonic fibroblasts, dry powder, set 2, cytotoxicity control, dose response (AID 493247); format: functional, cell-based; details: Fibroblast
Trypanosoma cruzi = assay: anti-trypanosomal activity in host cells – cell-based, plate reader, dry powder, set 3, dose response (AID 493197); format: functional
Mu-type opioid receptor = Mu-type opioid receptor (Homo sapiens, UniProt P35372); assay: SAR Analysis of Antagonists of the MOR Receptor using an Image-Based Assay - Set 3. [Related pubchem assays (depositor defined):AID1777, AID1785, AID1786, AID1966, AID2133, AID2136, AID2284, AID2285, AID2420]; format: functional
Mu-type opioid receptor, sequence (P35372 whole entry): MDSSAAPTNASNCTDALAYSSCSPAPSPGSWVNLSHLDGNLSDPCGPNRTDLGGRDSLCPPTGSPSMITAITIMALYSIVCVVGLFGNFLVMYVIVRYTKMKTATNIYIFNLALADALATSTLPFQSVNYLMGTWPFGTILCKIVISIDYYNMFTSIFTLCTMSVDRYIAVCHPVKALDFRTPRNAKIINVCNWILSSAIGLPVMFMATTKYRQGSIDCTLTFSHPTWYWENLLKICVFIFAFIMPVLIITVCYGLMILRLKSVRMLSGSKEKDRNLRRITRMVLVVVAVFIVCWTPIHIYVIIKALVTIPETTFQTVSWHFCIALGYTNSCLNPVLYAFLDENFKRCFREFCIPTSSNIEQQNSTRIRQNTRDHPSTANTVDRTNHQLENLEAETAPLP

[5] = molecular target: T1, Kappa-type opioid receptor (Homo sapiens, UniProt P41145); assay: SAR analysis of small molecule antagonists of the kappa opioid receptor via a luminescent beta-arrestin assay - Set 6. [Related pubchem assays (depositor defined):AID1777, AID1778, AID1785, AID1786, AID1966, AID2133, AID2136, AID2285]; format: functional
T1 sequence (P41145 whole entry): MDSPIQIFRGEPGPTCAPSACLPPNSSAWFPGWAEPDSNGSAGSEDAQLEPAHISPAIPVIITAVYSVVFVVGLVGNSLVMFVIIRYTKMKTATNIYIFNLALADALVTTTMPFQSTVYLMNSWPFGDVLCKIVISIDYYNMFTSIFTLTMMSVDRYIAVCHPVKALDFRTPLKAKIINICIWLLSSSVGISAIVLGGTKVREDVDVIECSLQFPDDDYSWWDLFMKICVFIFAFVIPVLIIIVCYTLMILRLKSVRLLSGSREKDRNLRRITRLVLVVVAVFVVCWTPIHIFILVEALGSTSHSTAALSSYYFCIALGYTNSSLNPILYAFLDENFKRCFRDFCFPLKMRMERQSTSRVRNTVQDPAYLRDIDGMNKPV

[6] = molecular target: Delta-type opioid receptor (Homo sapiens, UniProt P41143); assay: SAR Analysis of Antagonists of the DOR Receptor using an Image-Based Assay - Set 3. [Related pubchem assays (depositor defined):AID1777, AID1785]; format: functional;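 further: U2OS cells expressing DOR1 and beta-arrestin GFP stimulated with 100 nM SNC80; imaging of GFP-tagged beta-arrestin moving into spots after receptor activation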
Delta-type opioid receptor, sequence (P41143 whole entry): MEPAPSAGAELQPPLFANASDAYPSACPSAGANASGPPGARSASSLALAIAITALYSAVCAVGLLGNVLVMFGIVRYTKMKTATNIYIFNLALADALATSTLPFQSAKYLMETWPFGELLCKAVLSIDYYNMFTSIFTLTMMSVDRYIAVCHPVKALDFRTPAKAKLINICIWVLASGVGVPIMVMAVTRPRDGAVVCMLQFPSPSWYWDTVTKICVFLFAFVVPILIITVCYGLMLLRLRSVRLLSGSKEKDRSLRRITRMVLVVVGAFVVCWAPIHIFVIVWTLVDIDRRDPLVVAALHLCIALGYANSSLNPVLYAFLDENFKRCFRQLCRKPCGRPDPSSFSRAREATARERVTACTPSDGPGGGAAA

[7] = molecular target: T1, Kappa-type opioid receptor; assay: SAR analysis of small molecule antagonists of the kappa opioid receptor via a luminescent beta-arrestin assay - Set 3. [Related pubchem assays (depositor defined):AID1777, AID1778, AID1785, AID1786, AID1966, AID2133, AID2136, AID2285, AID2495]; format: functional
[8] = molecular target: T1, Kappa-type opioid receptor; assay: SAR analysis of Antagonists of the Kappa Opioid Receptor (KOR) using an Image-Based Assay - Set 4. [Related pubchem assays (depositor defined):AID1777, AID1785]; format: functional
Wee1-like protein kinase = Wee1-like protein kinase (Homo sapiens, UniProt P30291); assay: HeLa cell cycle G2/M accumulation – FACS, mechanism study for Wee1 degradation inhibitor project, late-stage follow-up, panel member Wee1 Degradation (AID 2088)
[9] = molecular target: G2/mitotic-specific cyclin-B1 (Homo sapiens, UniProt P14635); assay: HeLa cell cycle G2/M accumulation – FACS, mechanism study for Wee1 degradation inhibitor project, late-stage follow-up, panel member Cyclin B Degradation (AID 2088)
G2/mitotic-specific cyclin-B1, sequence (P14635 whole entry): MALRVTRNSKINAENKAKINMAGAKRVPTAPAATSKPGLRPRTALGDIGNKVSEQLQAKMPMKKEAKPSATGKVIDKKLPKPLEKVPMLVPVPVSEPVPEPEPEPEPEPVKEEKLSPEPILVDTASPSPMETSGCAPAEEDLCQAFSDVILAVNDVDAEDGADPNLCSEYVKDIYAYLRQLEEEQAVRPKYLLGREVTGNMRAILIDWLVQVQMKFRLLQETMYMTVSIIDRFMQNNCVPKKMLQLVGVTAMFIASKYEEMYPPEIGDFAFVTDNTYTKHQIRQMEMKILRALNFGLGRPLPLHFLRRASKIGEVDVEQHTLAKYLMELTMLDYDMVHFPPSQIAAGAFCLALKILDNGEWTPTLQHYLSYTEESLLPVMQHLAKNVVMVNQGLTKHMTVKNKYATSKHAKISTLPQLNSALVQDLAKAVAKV

[10] = molecular target: Sphingosine 1-phosphate receptor 4 (Homo sapiens, UniProt O95977); assay: potency of S1P4 activators – cell-based, fluorescence, synthesized compounds, late-stage follow-up (AID 463107); format: functional
Sphingosine 1-phosphate receptor 4, sequence (O95977 whole entry): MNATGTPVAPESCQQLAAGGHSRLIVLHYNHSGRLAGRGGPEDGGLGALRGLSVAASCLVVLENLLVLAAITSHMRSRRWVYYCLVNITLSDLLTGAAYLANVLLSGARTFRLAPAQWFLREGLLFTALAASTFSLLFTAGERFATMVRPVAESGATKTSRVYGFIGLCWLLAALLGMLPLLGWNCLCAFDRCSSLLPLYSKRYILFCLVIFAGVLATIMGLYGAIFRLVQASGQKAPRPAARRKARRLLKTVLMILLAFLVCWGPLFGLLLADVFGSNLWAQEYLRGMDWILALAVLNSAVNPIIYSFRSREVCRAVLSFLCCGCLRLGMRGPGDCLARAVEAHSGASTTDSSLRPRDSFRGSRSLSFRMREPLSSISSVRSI

[11] = molecular target: T2, Eukaryotic translation initiation factor 4H (Homo sapiens, UniProt Q15056); assay: eIF4H binding inhibition – biochemical, uHTS, fluorescence polarization, translation initiation inhibitor project, primary screen (AID 2012)
[12] = molecular target: T3, Polyadenylate-binding protein 1 (Homo sapiens, UniProt P11940); assay: blockers of PABP interaction with poly(A) – biochemical, fluorescence polarization, […] (AID 2014)
T3 sequence (P11940 whole entry): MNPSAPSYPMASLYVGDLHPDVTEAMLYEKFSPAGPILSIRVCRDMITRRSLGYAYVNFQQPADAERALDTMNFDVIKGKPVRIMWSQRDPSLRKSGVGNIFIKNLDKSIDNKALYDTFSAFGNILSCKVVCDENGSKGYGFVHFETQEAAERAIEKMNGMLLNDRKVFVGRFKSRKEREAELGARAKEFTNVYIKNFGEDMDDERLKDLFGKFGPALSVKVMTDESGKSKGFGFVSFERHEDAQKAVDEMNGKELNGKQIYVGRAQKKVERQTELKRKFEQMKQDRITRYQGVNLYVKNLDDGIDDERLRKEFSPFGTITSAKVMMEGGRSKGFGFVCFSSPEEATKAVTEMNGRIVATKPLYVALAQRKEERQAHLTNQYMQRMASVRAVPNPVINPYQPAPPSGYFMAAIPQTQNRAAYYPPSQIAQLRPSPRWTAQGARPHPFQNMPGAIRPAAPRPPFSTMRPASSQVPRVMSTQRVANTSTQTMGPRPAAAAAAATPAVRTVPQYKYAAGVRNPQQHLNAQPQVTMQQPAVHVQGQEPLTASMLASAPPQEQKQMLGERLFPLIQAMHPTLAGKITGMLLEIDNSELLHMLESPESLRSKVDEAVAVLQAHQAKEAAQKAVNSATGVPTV

[13] = molecular target: T2, Eukaryotic translation initiation factor 4H; assay: inhibitors of translation initiation factor eIF4H – SAR follow-up (AID 435011); format: functional
[14] = molecular target: T3, Polyadenylate-binding protein 1; assay: PABP inhibition in translation initiation, SAR follow-up (AID 435018); format: functional

NACHT, LRR and PYD domains-containing protein 3, sequence (Q96P20 whole entry, the tested form may be a part): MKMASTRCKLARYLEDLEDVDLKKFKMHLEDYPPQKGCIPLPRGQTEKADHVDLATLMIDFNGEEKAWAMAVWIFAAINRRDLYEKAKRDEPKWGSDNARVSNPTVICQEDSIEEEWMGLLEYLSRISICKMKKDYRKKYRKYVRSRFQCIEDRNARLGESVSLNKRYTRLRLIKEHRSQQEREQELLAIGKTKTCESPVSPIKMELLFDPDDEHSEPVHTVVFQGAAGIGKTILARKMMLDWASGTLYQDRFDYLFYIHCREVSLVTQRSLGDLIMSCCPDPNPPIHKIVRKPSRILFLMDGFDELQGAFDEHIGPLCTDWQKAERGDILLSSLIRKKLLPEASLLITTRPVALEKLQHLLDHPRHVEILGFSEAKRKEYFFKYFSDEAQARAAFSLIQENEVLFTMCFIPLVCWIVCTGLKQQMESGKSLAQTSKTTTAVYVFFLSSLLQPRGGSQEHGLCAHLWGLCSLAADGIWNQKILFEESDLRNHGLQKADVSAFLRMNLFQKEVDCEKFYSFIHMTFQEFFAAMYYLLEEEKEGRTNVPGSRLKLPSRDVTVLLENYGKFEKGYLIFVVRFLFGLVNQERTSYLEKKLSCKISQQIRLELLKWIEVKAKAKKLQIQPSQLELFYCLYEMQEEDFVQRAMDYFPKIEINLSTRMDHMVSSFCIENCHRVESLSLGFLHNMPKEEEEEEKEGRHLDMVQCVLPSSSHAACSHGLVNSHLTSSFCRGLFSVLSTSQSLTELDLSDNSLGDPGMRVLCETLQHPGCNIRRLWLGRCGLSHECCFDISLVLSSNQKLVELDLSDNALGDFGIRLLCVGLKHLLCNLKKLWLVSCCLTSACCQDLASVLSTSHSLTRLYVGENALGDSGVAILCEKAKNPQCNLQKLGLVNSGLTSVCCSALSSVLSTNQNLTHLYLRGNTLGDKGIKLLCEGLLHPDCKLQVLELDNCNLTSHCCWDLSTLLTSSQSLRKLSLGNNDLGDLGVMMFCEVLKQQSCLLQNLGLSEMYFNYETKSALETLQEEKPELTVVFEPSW

## Cc1csc2nc(O)c(C(=O)NCCC3=CCCCC3)c(=O)n12
[1]
  IC50: 4.07 µM (active)

## Cc1cccn2c(=O)c3cc(C(=O)NCCc4ccccc4)c(=N)n(Cc4ccco4)c3nc12
[2]
  CC50: 15.5 µM (active)
[3]
  IC50: 3.68 µM (active)

## FC(F)Oc1ccc(C2=Nn3c(nnc3-c3ccccc3Cl)SC2)cc1OCC1CC1
Integrin alpha-4
  EC50: 3.89 µM (active)

## COc1ccc(CCN(C)C(=O)C2CCCN(Cc3ccccc3)C2)cc1OC (stereo not drawn)
[4]
  AC50: 47.4 µM (active)
Trypanosoma cruzi
  AC50: 1.4 µM (active)

## COc1ccc(N2CCN(CCCNC(=O)Cn3c(=O)c4cccn4c4c(C)ccnc43)CC2)c(OC)c1
Mu-type opioid receptor
  IC50: 30.9 µM (inactive)
[5]
  IC50: 0.225 µM (active)
[6]
  IC50: > 32 µM (inactive)
[7]
  IC50: 0.154 µM (active)
[8]
  IC50: 0.00406 µM (active)

## Cc1cc(O)nc(-n2nc(C)cc2NC(=O)/C=C/c2ccccc2)n1
Wee1-like protein kinase
  EC50: > 16.6 µM (active)
[9]
  EC50: > 49.7 µM (inactive)

## Cc1ccc(OCCOc2ccc(Oc3ccccc3)cc2)c([N+](=O)[O-])n1
[10]
  EC50: > 50 µM (inactive)

## COc1cccc(CNC(=O)CSc2ccc(-c3ccco3)nn2)c1
[11]
  IC50: 34.9 µM (active)
[12]
  IC50: > 100 µM (inactive)
[13]
  IC50: > 100 µM (inactive)
[14]
  IC50: > 100 µM (inactive)
